According to patent EP0520604A2, “Monoclonal antibody against pentacyclic oleanan-type triterpene and use thereof” (MINOPHAGEN PHARMACEUTICAL COMPANY, priority 1991, dated 1992):

How the values were obtained:
Assay in all cases: Inhibition ELISA (cross reactivity), solidified GA-BSA conjugate as antigen
Type in all cases: binding, mouse
[1] = system: monoclonal antibody produced by a strain GA2-20-3; settings: for 50 % inhibition concentration (IC 50): monoclonal antibody 2-20-3, 50-fold diluted, from inhibition curves; for cross reactivity: monoclonal antibody 2-20-3, values in parenthesis, relative to (GA)
Method: (§1) Inhibition ELISA comprises sequentially incubating the solidified GA-BSA conjugate with glycyrrhetic acid or a sample together with the antibody, bonding the enzyme-labeled anti-mouse IgG to the resulting incubation mixture, thereby measuring the enzyme activity. The antibody bonded to the antigen contained in the sample cannot be bonded to the solidified antigen, and therefore, the amount of the enzyme bonded is reduced. By measuring the enzyme activity, glycyrrhetic acid contained in the sample can be measured. The amount of glycyrrhizin can be determined by measuring glycyrrhetic acid generated by the acid hydrolysis of glycyrrhizin.
(§2) According to direct ELISA, the antibody solution is divided into each well; according to inhibition ELISA, glycyrrhetic acid or a sample solution is divided into each well together with the antibody solution. After left to stand at ambient temperature, the wells are washed before the division of an enzyme-labeled anti-mouse IgG solution, and then the wells are left to stand at ambient temperature.
(§3) After washing each well again, a solution of a dye which develops color on enzyme reaction is divided into the washed wells for reaction. After the completion of the reaction, the absorbance of each well at 405 nm is measured with an immunoreader. By comparing the results with the values obtained from known amounts of the antigen, glycyrrhetic acid can be assayed.
(§4) The cross reactivity to the following individual compounds was examined according to inhibition ELISA. • (1) 18α H-Olean-11-oxo-12ene-30-oic acid • (2) Olean-12ene-3,11-dioxo-30-oic acid • (3) Olean-12ene-3α-hydroxy-11-oxo-30-oic- acid • (4) Olean-12ene-11-oxo-3β, 30-diol • (5) Cholic acid • (6) Deoxy cholic acid • (7) Glycyrrhetlc acid (GA) • (8) Glycyrrhizin (GL) These are illustrated as compounds (1), (2), (3), (4), (5), (6), (GA) and (GL).
(§5) One hundred µℓ each of the GA-BSA solution (10 µg/mℓ) was divided in the wells of a 96-well microtiter plate and left to stand overnight at 4° C. After removing the antigen solution, 100 µℓ each of the BSA-PBS was divided and left to stand at 37° C for one hour.
(§6) The 50-fold diluted antibody and each of the compounds were individually adjusted to 10 ng/mℓ, 100 ng/mℓ and 1000 ng/mℓ. Fifty µℓ each of the adjusted solution was divided in each well. After left to stand at ambient temperature for 30 minutes, the wells were washed three times with the PBS containing 0.05 % Tween 20, and washed twice with PBS, followed by the division of the 5000-fold dilution of goat anti-mouse IgG labeled with alkaline phosphatase, and left to stand at room temperature for 30 minutes.
(§7) After each well was washed following the same procedure described above, 100 µℓ each of 1M diethanolamine buffer (pH 9.8) containing p-nitrophenyl phosphate at a concentration of 1 mg/mℓ was divided and reacted at 37° C for 30 minutes. After the completion of the reaction, 2M sodium hydroxide was added. Then, the absorbance at 405 nm of each well was measured with an immunoreader.
(§8) From the inhibition curves obtained, 50 % inhibition concentration (IC 50) of each compound was determined. The antibody generated by the strain GA2-20-1, among the three strains, had the highest specificity.

[2] = system: monoclonal antibody produced by a strain GA2-20-6; settings: for 50 % inhibition concentration (IC 50): monoclonal antibody 2-20-6, 50-fold diluted, from inhibition curves; for cross reactivity: monoclonal antibody 2-20-6, values in parenthesis, relative to (GA)
Method: as §1, §2, §3, §4, §5, §6, §7, §8

[3] = system: monoclonal antibody produced by a strain GA2-20-1; settings: for 50 % inhibition concentration (IC 50): monoclonal antibody 2-20-1, 50-fold diluted, from inhibition curves; for cross reactivity: monoclonal antibody 2-20-1, values in parenthesis, relative to (GA)
Method: as §1, §2, §3, §4, §5, §6, §7, §8

| Compound | 50 % inhibition concentration (IC 50) [1] | cross reactivity [1] | 50 % inhibition concentration (IC 50) [2] | cross reactivity [2] | 50 % inhibition concentration (IC 50) [3] | cross reactivity [3] |
| --- | --- | --- | --- | --- | --- | --- |
| 18α H-Olean-11-oxo-12ene-30-oic acid [compound (1)] | 0.0878 µg/mL | (37.5) % | 0.0975 µg/mL | (45.5) % | 0.0876 µg/mL | (18.2) % |
| CC1(C)C(=O)CC[C@]2(C)[C@H]3C(=O)C=C4[C@@H]5C[C@@](C)(C(=O)O)CC[C@]5(C)CC[C@@]4(C)[C@]3(C)CC[C@@H]12 [(2), Olean-12ene-3,11-dioxo-30-oic acid] | 0.9571 µg/mL | ( 3.4) % | >1 µg/mL | (<1.6) % | 0.8317 µg/mL | ( 1.9) % |
| CC1(C)[C@H](O)CC[C@]2(C)[C@H]3C(=O)C=C4[C@@H]5C[C@@](C)(C(=O)O)CC[C@]5(C)CC[C@@]4(C)[C@]3(C)CC[C@@H]12 [(3), Olean-12ene-3α-hydroxy-11-oxo-30-oic-acid] | 0.6765 µg/mL | ( 4.9) % | 0.7933 µg/mL | ( 5.6) % | 0.6954 µg/mL | ( 2.3) % |
| CC1(C)[C@@H](O)CC[C@]2(C)[C@H]3C(=O)C=C4[C@@H]5C[C@@](C)(CO)CC[C@]5(C)CC[C@@]4(C)[C@]3(C)CC[C@@H]12 [(4), Olean-12ene-11-oxo-3β, 30-diol] | 0.4767 µg/mL | ( 6.9) % | 0.4254 µg/mL | (10.4) % | 0.4372 µg/mL | ( 3.6) % |
| CC1(C)[C@@H](O[C@H]2O[C@H](C(=O)O)[C@@H](O)[C@H](O)[C@H]2O[C@@H]2O[C@H](C(=O)O)[C@@H](O)[C@H](O)[C@H]2O)CC[C@]2(C)[C@H]3C(=O)C=C4[C@@H]5C[C@@](C)(C(=O)O)CC[C@]5(C)CC[C@@]4(C)[C@]3(C)CC[C@@H]12 [(GL), Glycyrrhizin] | >1 µg/mL | (<1.6) % | >1 µg/mL | (<1.6) % | >1 µg/mL | (<1.6) % |
| C[C@H](CCC(=O)O)[C@H]1CC[C@H]2[C@@H]3[C@H](O)C[C@@H]4C[C@H](O)CC[C@]4(C)[C@H]3C[C@H](O)[C@]12C [compound (5), Cholic acid] | >1 µg/mL | (<1.6) % | >1 µg/mL | (<1.6) % | >1 µg/mL | (<1.6) % |
| Glycyrrhetlc acid [(GA)] | 0.0329 µg/mL | – | 0.0444 µg/mL | – | 0.0159 µg/mL | – |
